In data set [1] the target is T1, airway epithelial sodium currents (sodium channel) (UniProt A0A8I3MKE6+A0A8I3Q679+Q95165).
T1 sequence (A0A8I3MKE6 1-646): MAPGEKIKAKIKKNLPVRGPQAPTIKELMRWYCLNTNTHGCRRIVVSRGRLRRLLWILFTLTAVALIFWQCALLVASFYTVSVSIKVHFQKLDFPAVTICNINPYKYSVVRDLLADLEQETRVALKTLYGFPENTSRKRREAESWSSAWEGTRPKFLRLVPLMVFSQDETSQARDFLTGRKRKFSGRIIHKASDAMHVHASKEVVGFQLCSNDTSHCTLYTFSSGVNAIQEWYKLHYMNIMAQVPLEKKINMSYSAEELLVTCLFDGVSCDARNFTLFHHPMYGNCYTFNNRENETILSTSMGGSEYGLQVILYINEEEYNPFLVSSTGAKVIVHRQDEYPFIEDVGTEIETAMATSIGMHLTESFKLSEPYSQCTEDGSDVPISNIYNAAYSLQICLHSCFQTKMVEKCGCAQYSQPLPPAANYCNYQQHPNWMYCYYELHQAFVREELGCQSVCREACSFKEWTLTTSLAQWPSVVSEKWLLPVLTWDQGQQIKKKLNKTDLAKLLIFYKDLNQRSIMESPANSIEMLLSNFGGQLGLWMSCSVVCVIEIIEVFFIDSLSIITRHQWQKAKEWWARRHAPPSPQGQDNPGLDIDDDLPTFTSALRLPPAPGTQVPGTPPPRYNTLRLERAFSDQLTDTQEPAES
T1 sequence (A0A8I3Q679 1-649): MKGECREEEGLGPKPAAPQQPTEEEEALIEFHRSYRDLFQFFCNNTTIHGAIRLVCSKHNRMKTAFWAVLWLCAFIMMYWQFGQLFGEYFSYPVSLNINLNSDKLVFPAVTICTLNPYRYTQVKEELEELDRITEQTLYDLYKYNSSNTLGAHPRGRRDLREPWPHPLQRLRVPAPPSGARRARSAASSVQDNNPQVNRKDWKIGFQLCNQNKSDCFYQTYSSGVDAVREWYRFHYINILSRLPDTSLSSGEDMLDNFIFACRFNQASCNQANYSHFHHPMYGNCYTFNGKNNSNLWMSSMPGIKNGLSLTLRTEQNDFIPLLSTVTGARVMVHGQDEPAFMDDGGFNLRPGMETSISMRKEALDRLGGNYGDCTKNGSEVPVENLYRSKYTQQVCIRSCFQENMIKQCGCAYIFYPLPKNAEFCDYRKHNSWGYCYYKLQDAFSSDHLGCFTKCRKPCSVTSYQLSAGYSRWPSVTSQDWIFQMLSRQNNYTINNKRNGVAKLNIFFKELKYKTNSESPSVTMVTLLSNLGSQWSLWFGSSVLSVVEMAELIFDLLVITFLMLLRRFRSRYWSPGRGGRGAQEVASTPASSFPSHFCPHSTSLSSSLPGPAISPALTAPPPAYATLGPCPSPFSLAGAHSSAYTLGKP
T1 sequence (Q95165 1-641): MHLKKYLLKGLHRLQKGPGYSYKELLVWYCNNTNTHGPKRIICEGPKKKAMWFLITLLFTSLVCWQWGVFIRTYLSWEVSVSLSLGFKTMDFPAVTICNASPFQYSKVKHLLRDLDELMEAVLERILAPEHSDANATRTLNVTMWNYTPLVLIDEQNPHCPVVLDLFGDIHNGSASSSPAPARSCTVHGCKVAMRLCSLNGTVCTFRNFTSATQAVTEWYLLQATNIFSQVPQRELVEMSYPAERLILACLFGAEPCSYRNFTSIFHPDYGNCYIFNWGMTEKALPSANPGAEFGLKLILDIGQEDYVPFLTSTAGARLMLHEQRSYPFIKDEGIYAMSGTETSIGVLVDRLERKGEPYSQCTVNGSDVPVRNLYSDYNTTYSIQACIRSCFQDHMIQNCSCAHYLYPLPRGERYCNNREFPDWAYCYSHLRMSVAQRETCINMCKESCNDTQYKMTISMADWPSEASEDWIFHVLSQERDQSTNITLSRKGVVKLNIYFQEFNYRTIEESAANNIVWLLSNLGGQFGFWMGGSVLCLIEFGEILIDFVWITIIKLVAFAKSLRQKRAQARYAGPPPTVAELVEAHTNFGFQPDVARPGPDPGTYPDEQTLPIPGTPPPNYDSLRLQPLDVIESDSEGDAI
Nature of the data set: Sodium channel blocking activity: inhibition of short circuit current (ISC) in airway epithelial monolayers mounted in Ussing chambers. Conditions: for Fold Amiloride** (PSA 4022 = 100): Cyclic Pyrazinoylguanidines, relative potency for PSA 4022 = 100 using EC50 from PSA 4022 in same run; for EC50: Selected Cyclic Pyrazinoylguanidines (Formula III), mean ± spread. Format: cell-based, human, dog, sheep or rodent. As for the experimental part:
In Vitro Measure of Sodium Channel Blocking Activity and Reversibility
One assay used to assess mechanism of action and/or potency of the compounds of the present invention involves the determination of lumenal drug inhibition of airway epithelial sodium currents measured under short circuit current (ISC) using airway epithelial monolayers mounted in Ussing chambers. Cells obtained from freshly excised human, dog, sheep or rodent airways are seeded onto porous 0.4 micron Snapwell™ Inserts (CoStar), cultured at air-liquid interface (ALI) conditions in hormonally defined media, and assayed for sodium transport activity (ISC) while bathed in Krebs Bicarbonate Ringer (KBR) in Using chambers. All test drug additions are to the lumenal bath with half-log dose addition protocols (from 1×10^−11 M to 3×10^−5 M), and the cumulative change in ISC (inhibition) recorded. All drugs are prepared in dimethyl sulfoxide as stock solutions at a concentration of 1×10^−2 M and stored at −20° C. Eight preparations are typically run in parallel; two preparations per run incorporate amiloride and/or benzamil as positive controls. After the maximal concentration (5×10^−5 M) is administered, the lumenal bath is exchanged three times with fresh drug-free KBR solution, and the resultant ISC measured after each wash for approximately 5 minutes in duration. Reversibility is defined as the percent return to the baseline value for sodium current after the third wash. All data from the voltage clamps are collected via a computer interface and analyzed off-line.
Dose-effect relationships for all compounds are considered and analyzed by the Prism 3.0 program. IC50 values, maximal effective concentrations, and reversibility are calculated and compared to amiloride and benzamil as positive controls.

SMILES strings stand for the structures. Structures can show the parent of a compound that is named as a salt. Where two headings read alike, the source gives them in different places.

`N=C(NCCOCCOCCN)NC(=O)c1nc(Cl)c(N)nc1N`: the melting point lay within 87 to 90 °C.

`CC(C)(C)OC(=O)NCCCCCCCCCCNC(=N)NC(=O)c1nc(Cl)c(N)nc1N` had a melting point of 186 to 188 °C.

`CC(C)(C)OC(=O)N=C(NCCCCCCCCNC(=N)NC(=O)c1nc(Cl)c(N)nc1N)NC(=O)OC(C)(C)C`: the melting point was 208 to 210 °C (dec.).

With `CC(C)(C)OC(=O)NCCCCCCCCCCCNC(=N)NC(=O)c1nc(Cl)c(N)nc1N`, the melting point fell in the range of 82 to 84 °C.

In the case of `N=C(NCCCCc1ccc(OCC(=O)NCC(N)=O)cc1)NC(=O)c1nc(Cl)c(N)nc1N` (as salt: HCl) [compound 16314, N-carbamoylmethyl-2-(4-{4-[N′-(3,5-diamino-6-chloropyrazine-2-carbonyl)guanidino]butyl}phenoxy)acetamide], the melting point is 178 to 180 °C (dec.).

Consider `N=C(N)NCCOCCOCCNC(=N)NC(=O)c1nc(Cl)c(N)nc1N` (as salt: hydrochloride), for which the melting point was 108 to 112 °C (dec.).

As to `N=C(NCCCOCCCN)NC(=O)c1nc(Cl)c(N)nc1N` (as salt: hydrochloride), the melting point is 164 to 166 °C (dec.).

On to `N=C(N)NCCCOCCCNC(=N)NC(=O)c1nc(Cl)c(N)nc1N` (as salt: hydrochloride), for which the melting point was 72 to 75 °C (dec.).

Take `CN(C)C(=O)COc1ccc(CCCCNC(=N)NC(=O)c2nc(Cl)c(N)nc2N)cc1` (as salt: hydrochloride) [compound 16313, 2-(4-{4-[N-(3,5-diamino-6-chloropyrazine-2-carbonyl)guanidino]-butyl}phenoxy)-N,N-dimethylacetamide hydrochloride]: the melting point is 130 to 132 °C (dec.).

Consider `N=C(NCCCCc1ccc(OCC(=O)Nc2ncc[nH]2)cc1)NC(=O)c1nc(Cl)c(N)nc1N` (as salt: hydrochloride) [compound 16437, 2-(4-{4-[N′-(3,5-diamino-6-chloropyrazine-2-carbonyl)guanidino]-butyl}phenoxy)-N-(1H-imidazol-2-yl)acetamide dihydrochloride], for which the melting point lay within 172 to 174 °C.

For `N=C(NCCCCCCN)NC(=O)c1nc(Cl)c(N)nc1N` (as salt: hydrochloride) [compound 18706, N-(6-aminohexyl)-N′-(3,5-diamino-6-chloropyrazine-2-carbonyl)guanidine dihydrochloride], the melting point was above 240 °C.

Turning to `N=C(N)NCCCCCCCCCNC(=N)NC(=O)c1nc(Cl)c(N)nc1N` (as salt: hydrochloride) [compound 19006, N-{9-[N′-(3,5-diamino-6-chloropyrazine-2-carbonyl)guanidino]nonyl}guanidine dihydrochloride], the melting point lay within 178 to 180 °C.

In turn, `N=C(N)NCCCCCCCNC(=N)NC(=O)c1nc(Cl)c(N)nc1N` (as salt: hydrochloride) [compound 19155, N-{7-[N′-(3,5-diamino-6-chloropyrazine-2-carbonyl)guanidino]heptyl}guanidine dihydrochloride] returned a melting point of 140 to 142 °C.

On to `N=C(NCCCCCCCCCN)NC(=O)c1nc(Cl)c(N)nc1N` (as salt: hydrochloride) [compound 19335, N-(9-aminononyl)-N′-(3,5-diamino-6-chloropyrazine-2-carbonyl)-guanidine dihydrochloride], for which the melting point was 155 to 157 °C (dec.).

`N=C(NCCCCCCCCN)NC(=O)c1nc(Cl)c(N)nc1N` (as salt: hydrochloride) [compound 19336, N-(8-aminooctyl)-N′-(3,5-diamino-6-chloropyrazine-2-carbonyl)-guanidine dihydrochloride] showed a melting point of 253 to 255 °C.

`CC(C)(C)OC(=O)NCCCN1CCC(CCCCNC(N)=NC(=O)c2nc(Cl)c(N)nc2N)CC1` [compound 25452, [3-(4-{4-[N′-(3,5-diamino-6-chloropyrazine-2-carbonyl)guanidino]butyl}piperidin-1-yl)propyl]carbamic acid tert-butyl ester]: the “Fold Amiloride** (PSA 4022 = 100)” value in data set [1] is on record as 8 ± 1. Besides, the EC50 in data set [1] (read-out: EC50) was determined as 60 ± 6 nM.

Consider `Cl.Cl.Cl.N=C(NCCCCC1CCN(CCN)CC1)NC(=O)c1nc(Cl)c(N)nc1N` [compound 25455, N-{4-[1-(2-Aminoethyl)piperidin-4-yl]butyl}-N′-(3,5-diamino-6-chloropyrazine-2-carbonyl)guanidine trihydrochloride], for which the “Fold Amiloride** (PSA 4022 = 100)” value in data set [1] was 5 ± 1. In data set [1] (read-out: EC50), the EC50 is 104 ± 32 nM.

In the case of `N=C(NCCCCC1CCN(CC(O)CO)CC1)NC(=O)c1nc(Cl)c(N)nc1N` (centres unmarked) [compound 25456, N-(3,5-Diamino-6-chloropyrazine-2-carbonyl)-N′-{4-[1-(2,3-dihydroxypropyl)-piperidin-4-yl]butyl}guanidine], the “Fold Amiloride** (PSA 4022 = 100)” value in data set [1] is 6 ± 2. Besides, in data set [1] (read-out: EC50), the EC50 was 106 ± 34 nM.

`N=C(NCCCCC1CCN(CCCN)CC1)NC(=O)c1nc(Cl)c(N)nc1N` [compound 25510, N-{4-[1-(3-Aminopropyl)piperidin-4-yl]butyl}-N′-(3,5-diamino-6-chloropyrazine-2-carbonyl)guanidine trihydrochloride]: in data set [1], the “Fold Amiloride** (PSA 4022 = 100)” value is given as 3 ± 9 and the EC50 was 61 ± 23 nM.

For the molecule `CC(C)(C)OC(=O)N=C(NCCCN1CCC(CCCCNC(=N)NC(=O)c2nc(Cl)c(N)nc2N)CC1)NC(=O)OC(C)(C)C` [compound 25569, N-(3,5-Diamino-6-chloropyrazine-2-carbonyl)-N′-{4-[1-(3-[N″,N′″-bis-tert-butoxycarbonyl]guanidinopropyl)piperidin-4-yl]butyl}guanidine], the “Fold Amiloride** (PSA 4022 = 100)” value in data set [1] stood at 41 ± 9. In addition, the EC50 in data set [1] (read-out: EC50) was 16 ± 3 nM.

Turning to `Cl.Cl.Cl.N=C(N)NCCCN1CCC(CCCCNC(=N)NC(=O)c2nc(Cl)c(N)nc2N)CC1` [compound 25795, N-(3,5-Diamino-6-chloropyrazine-2-carbonyl)-N′-{4-[1-(3-guanidinopropyl)piperidin-4-yl]butyl}guanidine trihydrochloride], in data set [1], the “Fold Amiloride** (PSA 4022 = 100)” value came to 18 ± 7.

The term melting point denotes the temperature of the solid-liquid transition. In general, EC50 refers to the concentration that produces a half-maximal response.

The values above are taken from patent publication US20050090505A1, “Methods of reducing risk of infection from pathogens” (priority 2003, published 2005).
